Measurements as given in paper PMC5240934, “Molecular Mechanism of Disease-Associated Mutations in the Pre-M1 Helix of NMDA Receptors and Potential Rescue Pharmacology” (PLoS Genetics, 2017).
Like-named read-outs stand apart in the source and are kept apart here.

Key:
Experiment in all cases: two-electrode voltage clamp, Xenopus oocytes
Type in all cases: cell-based
rat GluN1/GluN2D = molecular target: T1, rat GluN1/GluN2D (Rattus norvegicus, UniProt P35439+Q62645)
T1 construct: gene Grin1; full-length subunits in pCI-neo, cRNA in Xenopus laevis oocytes; di-heteromeric tetramer
Text: two-electrode voltage clamp, Xenopus oocytes on rat GluN1/GluN2D

human GluN1/GluN2A [1] = molecular target: T2, human GluN1/GluN2A (Homo sapiens, UniProt Q05586+Q12879)
T2 construct: gene GRIN1; full open reading frames in pCI-neo, cRNA in Xenopus laevis oocytes; di-heteromeric tetramer
Text: (§1) two-electrode voltage clamp, Xenopus oocytes on human GluN1/GluN2A

human GluN1/GluN2A [2] = molecular target: T3, human GluN1/GluN2A (Homo sapiens, UniProt Q05586+Q12879, Q12879:P552R)
T3 construct: gene GRIN1; full open reading frames in pCI-neo, cRNA in Xenopus laevis oocytes; di-heteromeric tetramer
Text: as §1

human GluN1/GluN2B [3] = molecular target: T4, human GluN1/GluN2B (Homo sapiens, UniProt Q05586+Q13224, Q13224:P553R)
T4 construct: gene GRIN1; full open reading frames in pCI-neo, cRNA in Xenopus laevis oocytes; di-heteromeric tetramer
Text: (§2) two-electrode voltage clamp, Xenopus oocytes on human GluN1/GluN2B

human GluN1/GluN2B [4] = molecular target: T5, human GluN1/GluN2B (Homo sapiens, UniProt Q05586+Q13224, Q05586:D552E)
T5 construct: gene GRIN1; full open reading frames in pCI-neo, cRNA in Xenopus laevis oocytes; di-heteromeric tetramer
Text: as §2

human GluN1/GluN2B [5] = molecular target: T6, human GluN1/GluN2B (Homo sapiens, UniProt Q05586+Q13224, Q05586:P557R)
T6 construct: gene GRIN1; full open reading frames in pCI-neo, cRNA in Xenopus laevis oocytes; di-heteromeric tetramer
Text: as §2

human GluN1/GluN2A [6] = molecular target: T7, human GluN1/GluN2A (Homo sapiens, UniProt Q05586+Q12879, Q05586:P557R)
T7 construct: gene GRIN1; full open reading frames in pCI-neo, cRNA in Xenopus laevis oocytes; di-heteromeric tetramer
Text: as §1

human GluN1/GluN2A [7] = molecular target: T8, human GluN1/GluN2A (Homo sapiens, UniProt Q05586+Q12879, Q05586:D552E)
T8 construct: gene GRIN1; full open reading frames in pCI-neo, cRNA in Xenopus laevis oocytes; di-heteromeric tetramer
Text: as §1

human GluN1/GluN2A [8] = molecular target: T9, human GluN1/GluN2A (Homo sapiens, UniProt Q05586+Q12879, Q12879:A548T)
T9 construct: gene GRIN1; full open reading frames in pCI-neo, cRNA in Xenopus laevis oocytes; di-heteromeric tetramer
Text: as §1

[9] = read-out: IC50 (n; max inhibition) / GluN2A-P552R

T3 sequence (Q12879 23-1464 P552R, other chains not shown): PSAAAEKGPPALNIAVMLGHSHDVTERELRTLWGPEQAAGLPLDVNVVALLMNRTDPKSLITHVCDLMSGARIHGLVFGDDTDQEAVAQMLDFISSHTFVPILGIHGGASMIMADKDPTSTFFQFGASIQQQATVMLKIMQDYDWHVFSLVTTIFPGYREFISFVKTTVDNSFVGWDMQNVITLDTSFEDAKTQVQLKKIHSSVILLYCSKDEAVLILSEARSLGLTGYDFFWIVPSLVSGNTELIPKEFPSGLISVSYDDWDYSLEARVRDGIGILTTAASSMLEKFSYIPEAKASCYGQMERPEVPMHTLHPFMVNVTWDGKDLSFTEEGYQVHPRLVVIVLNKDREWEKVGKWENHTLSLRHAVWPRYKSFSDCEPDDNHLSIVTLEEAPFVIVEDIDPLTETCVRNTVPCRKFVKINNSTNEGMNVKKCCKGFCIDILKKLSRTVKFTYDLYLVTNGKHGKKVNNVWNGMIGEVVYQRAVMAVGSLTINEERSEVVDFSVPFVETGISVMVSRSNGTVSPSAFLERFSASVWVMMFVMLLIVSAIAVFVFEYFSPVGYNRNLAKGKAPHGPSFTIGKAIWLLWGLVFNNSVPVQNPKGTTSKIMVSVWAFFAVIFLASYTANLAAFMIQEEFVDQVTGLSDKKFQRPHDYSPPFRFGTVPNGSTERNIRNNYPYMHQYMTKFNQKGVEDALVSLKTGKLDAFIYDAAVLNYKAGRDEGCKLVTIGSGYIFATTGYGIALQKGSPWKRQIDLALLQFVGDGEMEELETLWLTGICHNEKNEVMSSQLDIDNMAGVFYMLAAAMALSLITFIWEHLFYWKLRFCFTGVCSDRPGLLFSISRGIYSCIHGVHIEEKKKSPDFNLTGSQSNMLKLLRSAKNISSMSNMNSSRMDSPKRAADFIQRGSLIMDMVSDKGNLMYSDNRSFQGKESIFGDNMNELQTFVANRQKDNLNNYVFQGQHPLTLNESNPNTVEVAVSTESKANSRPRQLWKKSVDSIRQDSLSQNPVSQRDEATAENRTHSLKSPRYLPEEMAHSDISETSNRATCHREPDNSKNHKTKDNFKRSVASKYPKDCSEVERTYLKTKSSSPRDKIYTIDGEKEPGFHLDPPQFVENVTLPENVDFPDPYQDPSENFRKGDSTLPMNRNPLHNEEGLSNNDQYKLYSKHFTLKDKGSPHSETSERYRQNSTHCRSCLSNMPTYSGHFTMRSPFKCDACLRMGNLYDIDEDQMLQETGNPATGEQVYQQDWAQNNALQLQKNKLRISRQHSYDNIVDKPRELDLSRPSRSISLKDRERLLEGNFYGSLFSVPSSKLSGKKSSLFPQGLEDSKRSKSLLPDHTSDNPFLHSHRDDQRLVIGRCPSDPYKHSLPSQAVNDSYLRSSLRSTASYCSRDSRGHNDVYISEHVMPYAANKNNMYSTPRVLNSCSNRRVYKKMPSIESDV
T2 sequence (Q12879 23-1464, other chains not shown): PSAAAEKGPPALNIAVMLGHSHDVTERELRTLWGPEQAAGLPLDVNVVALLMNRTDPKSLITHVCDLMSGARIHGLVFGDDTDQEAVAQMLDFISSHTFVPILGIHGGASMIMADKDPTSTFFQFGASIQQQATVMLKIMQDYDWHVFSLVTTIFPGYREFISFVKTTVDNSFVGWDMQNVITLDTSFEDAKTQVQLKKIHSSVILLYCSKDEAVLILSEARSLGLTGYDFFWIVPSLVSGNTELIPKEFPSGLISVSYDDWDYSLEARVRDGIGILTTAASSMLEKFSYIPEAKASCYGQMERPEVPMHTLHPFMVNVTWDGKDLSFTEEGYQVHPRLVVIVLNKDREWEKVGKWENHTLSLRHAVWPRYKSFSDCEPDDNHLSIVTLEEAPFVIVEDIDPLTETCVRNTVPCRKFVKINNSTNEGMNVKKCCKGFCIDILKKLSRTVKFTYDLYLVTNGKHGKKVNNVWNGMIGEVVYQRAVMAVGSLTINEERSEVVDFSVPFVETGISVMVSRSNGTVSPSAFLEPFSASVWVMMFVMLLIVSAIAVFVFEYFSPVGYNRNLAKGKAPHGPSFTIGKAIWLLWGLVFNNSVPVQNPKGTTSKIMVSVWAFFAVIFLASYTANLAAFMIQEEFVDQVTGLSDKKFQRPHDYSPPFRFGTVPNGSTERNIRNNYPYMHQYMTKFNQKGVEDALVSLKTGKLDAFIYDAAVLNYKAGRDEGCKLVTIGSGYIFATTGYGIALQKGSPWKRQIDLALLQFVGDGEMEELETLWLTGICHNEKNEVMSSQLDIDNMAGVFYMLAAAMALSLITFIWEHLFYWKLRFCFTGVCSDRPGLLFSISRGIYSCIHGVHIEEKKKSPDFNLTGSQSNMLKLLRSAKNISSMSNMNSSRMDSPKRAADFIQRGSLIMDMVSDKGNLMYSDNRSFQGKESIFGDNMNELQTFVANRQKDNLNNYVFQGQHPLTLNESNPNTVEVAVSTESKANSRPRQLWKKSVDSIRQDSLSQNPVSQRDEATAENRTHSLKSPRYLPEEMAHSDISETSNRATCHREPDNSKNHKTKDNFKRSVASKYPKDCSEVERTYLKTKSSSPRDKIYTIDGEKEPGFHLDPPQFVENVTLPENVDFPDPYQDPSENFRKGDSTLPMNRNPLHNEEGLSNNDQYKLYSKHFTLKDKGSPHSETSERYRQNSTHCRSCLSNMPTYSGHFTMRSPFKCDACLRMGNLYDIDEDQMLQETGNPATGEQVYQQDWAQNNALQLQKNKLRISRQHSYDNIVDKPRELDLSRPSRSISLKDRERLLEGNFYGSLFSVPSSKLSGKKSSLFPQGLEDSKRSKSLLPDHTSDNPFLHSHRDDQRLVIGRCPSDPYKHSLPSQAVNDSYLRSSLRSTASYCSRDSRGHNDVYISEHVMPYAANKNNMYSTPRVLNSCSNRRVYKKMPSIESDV
T4 sequence (Q13224 27-1484 P553R, other chains not shown): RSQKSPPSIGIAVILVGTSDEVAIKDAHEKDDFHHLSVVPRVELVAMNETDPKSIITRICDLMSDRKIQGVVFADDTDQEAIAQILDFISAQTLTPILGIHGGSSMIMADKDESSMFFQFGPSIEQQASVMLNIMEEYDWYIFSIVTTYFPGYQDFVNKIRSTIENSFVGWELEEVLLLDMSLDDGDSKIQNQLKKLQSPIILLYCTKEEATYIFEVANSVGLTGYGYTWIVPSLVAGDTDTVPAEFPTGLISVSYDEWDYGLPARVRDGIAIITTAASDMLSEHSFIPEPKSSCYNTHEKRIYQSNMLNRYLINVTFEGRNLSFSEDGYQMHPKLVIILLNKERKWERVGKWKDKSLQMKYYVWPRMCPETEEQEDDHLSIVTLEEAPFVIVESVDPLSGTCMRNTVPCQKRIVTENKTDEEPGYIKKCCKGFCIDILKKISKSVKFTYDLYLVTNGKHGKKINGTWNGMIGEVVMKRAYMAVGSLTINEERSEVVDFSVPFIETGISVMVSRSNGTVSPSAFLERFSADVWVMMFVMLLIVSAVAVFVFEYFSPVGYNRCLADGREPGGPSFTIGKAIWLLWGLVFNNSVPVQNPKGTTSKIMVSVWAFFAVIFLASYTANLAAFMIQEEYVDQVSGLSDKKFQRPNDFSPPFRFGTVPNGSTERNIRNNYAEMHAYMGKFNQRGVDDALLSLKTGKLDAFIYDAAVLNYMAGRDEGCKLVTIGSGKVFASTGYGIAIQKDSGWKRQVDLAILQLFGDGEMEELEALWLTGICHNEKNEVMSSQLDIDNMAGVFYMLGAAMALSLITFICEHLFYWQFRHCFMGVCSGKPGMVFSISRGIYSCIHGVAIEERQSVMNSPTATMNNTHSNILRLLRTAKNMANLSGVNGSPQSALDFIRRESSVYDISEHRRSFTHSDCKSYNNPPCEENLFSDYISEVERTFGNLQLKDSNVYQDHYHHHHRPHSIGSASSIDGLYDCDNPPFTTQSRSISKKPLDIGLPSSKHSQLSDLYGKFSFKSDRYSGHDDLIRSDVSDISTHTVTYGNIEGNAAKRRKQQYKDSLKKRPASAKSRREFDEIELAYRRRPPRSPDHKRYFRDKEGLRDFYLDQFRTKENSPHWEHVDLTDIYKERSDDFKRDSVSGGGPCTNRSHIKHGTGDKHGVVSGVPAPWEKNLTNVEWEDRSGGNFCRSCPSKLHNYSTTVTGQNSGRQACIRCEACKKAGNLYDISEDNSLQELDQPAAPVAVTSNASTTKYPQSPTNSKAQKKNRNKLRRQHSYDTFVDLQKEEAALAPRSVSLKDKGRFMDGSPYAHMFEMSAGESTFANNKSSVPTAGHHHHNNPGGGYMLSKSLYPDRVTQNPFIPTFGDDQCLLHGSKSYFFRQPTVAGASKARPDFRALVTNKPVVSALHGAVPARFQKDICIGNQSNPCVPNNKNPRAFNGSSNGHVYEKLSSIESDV

SMILES: N[C@@H](CCC(=O)O)C(=O)O [Glutamate]
- EC50 (rat GluN1/GluN2D): 400 ± 70 nM

SMILES: NC12CC3CC(CC(C3)C1)C2 [Amantadine]
- IC50 (human GluN1/GluN2A [1]; read-out: IC50 (n; max inhibition) / GluN2A-WT): 126000 ± 17000 nM
- IC50 (human GluN1/GluN2A [2]; [9]): 86000 ± 22000 nM

SMILES: CNC1(c2ccccc2Cl)CCCCC1=O (stereo not drawn) [Ketamine]
- IC50 (human GluN1/GluN2A [1]): 4700 ± 800 nM
- IC50 (human GluN1/GluN2A [2]): 1300 ± 200 nM

SMILES: NCC(=O)O [Glycine]
- EC50 (human GluN1/GluN2B [3]): 50 ± 10 nM
- EC50 (human GluN1/GluN2B [4]): 660 ± 70 nM
- EC50 (human GluN1/GluN2B [5]): 70 ± 10 nM
- EC50 (human GluN1/GluN2A [6]): 180 ± 20 nM
- EC50 (human GluN1/GluN2A [7]): 3700 ± 320 nM
- EC50 (human GluN1/GluN2A [1]): 1400 ± 140 nM
- EC50 (human GluN1/GluN2A [8]): 2400 ± 90 nM
- EC50 (human GluN1/GluN2A [2]; read-out: Di-heteromeric NMDA Receptors / GluN2A-P552R): 60 ± 10 nM

SMILES: COc1ccc2c(c1)[C@]13CCCC[C@@H]1[C@H](C2)N(C)CC3 [Dextromethorphan]
- IC50 (human GluN1/GluN2A [1]; channel blocker, -40 mV, pH 7.4, no Mg2+, 23 °C, read-out: IC50 (n; max inhibition) / GluN2A-WT): 18000 ± 2900 nM
- IC50 (human GluN1/GluN2A [2]; [9]): 15000 ± 4600 nM
